The results in this text go back to patent publication US9771369B2, “Compounds and methods for kinase modulation, and indications therefor” (Plexxikon Inc., priority 2014, dated 2017).

Experiment [1] concerns BaF3-FL KIT D816V or BaF3-FL KIT V560G/D816V cell line. Kind of experiment: Cell-based assays of c-Kit mutant kinase activity (cell proliferation, ATPlite). The note with it: at least one of the c-kit cell assays of Example 7. The essentials: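 BaF3 cells dependent on transfected full-length human KIT D816V or V560G/D816V (pCI-Neo, CMV promoter) were seeded at 1×10^4 cells/well and exposed to 8-point 1:3 dilutions from 10 μM top (0.2% DMSO) for three days at 37° C. ATPlite luminescence gave cell number; IC50 from concentration-response.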
(In general: ATP-based viability assays read luminescence as a measure of living cells.)

A further experiment addresses c-kit mutant D816V (Homo sapiens (Human), UniProt P10721, D816V/DEL694-753). Kind of experiment: c-Kit mutant D816V biochemical assay (AlphaScreen kinase activity). A digest of the protocol: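 AlphaScreen with streptavidin donor and PY30 acceptor beads read phosphotyrosine on biotin-(E4Y)10 substrate (30 nM). Enzyme: E. coli-expressed N-His c-Kit D816V, residues 551-934 lacking kinase insert 694-753. Reaction 30 min at room temperature, 10 μM ATP, 5% DMSO; IC50 fitted over 8 three-fold dilutions.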
Background: Bead proximity is the source of the signal in Alpha formats.

The term IC50 denotes the concentration needed to halve the response being measured.

Chain of c-kit mutant D816V (P10721 other isoform, or with tags, fused parts or gaps D816V/del 694-753): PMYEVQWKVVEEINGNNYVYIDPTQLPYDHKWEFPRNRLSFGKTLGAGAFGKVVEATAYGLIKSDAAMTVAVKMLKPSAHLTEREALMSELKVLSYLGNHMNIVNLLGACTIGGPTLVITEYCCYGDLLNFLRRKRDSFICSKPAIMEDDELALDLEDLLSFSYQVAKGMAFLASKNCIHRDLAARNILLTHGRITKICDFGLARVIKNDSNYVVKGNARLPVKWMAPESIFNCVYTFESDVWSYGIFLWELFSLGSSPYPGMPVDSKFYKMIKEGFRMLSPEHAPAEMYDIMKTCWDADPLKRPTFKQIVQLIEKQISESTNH

For the compound `CCc1ccc(-c2[nH]c(C3CCN(c4ncnc5[nH]c(-c6ccc(F)cc6)cc45)CC3)nc2C)cc1` [P-3060, 4-[4-[5-(4-ethylphenyl)-4-methyl-1H-imidazol-2-yl]-1-piperidyl]-6-(4-fluorophenyl)-7H-pyrrolo[2,3-d]pyrimidine], the results for the half-inhibitory concentration (IC50) (in experiment [1]; on c-kit mutant D816V) were under 10 µM and 0.0001 to 1 µM, respectively.

With `CCc1ccc(-c2[nH]c(C3CCN(c4ncnc5[nH]c(-c6ccc(C#N)cc6)cc45)CC3)nc2C)cc1` [P-3061, 4-[4-[4-[5-(4-ethylphenyl)-4-methyl-1H-imidazol-2-yl]-1-piperidyl]-7H-pyrrolo[2,3-d]pyrimidin-6-yl]benzonitrile], the values for the IC50 (in experiment [1]; against c-kit mutant D816V) were under 10 µM and 0.0001 to 1 µM, respectively.

On to `Cc1ccc(-c2[nH]c(C3CCN(c4ncnc5[nH]c(-c6ccc(F)cc6)cc45)CC3)nc2C)cc1` [P-3062, 6-(4-fluorophenyl)-4-[4-[4-methyl-5-(p-tolyl)-1H-imidazol-2-yl]-1-piperidyl]-7H-pyrrolo[2,3-d]pyrimidine], for which the values for the concentration for half-maximal inhibition (IC50) (in experiment [1]; on c-kit mutant D816V) were under 10 µM and 0.0001 to 1 µM, respectively.

For `COc1ccc(-c2[nH]c(C3(C)CCN(c4ncnc5[nH]c(C)cc45)CC3)nc2C)cc1` [P-3063, 4-[4-[5-(4-methoxyphenyl)-4-methyl-1H-imidazol-2-yl]-4-methyl-1-piperidyl]-6-methyl-7H-pyrrolo[2,3-d]pyrimidine], the IC50 in experiment [1] was under 10 µM; against c-kit mutant D816V, 0.0001 to 1 µM.

Take `Cc1cc2c(N3CCC(C)(c4nc(C)c(-c5ccc(F)cc5)[nH]4)CC3)ncnc2[nH]1` [P-3064, 4-[4-[5-(4-fluorophenyl)-4-methyl-1H-imidazol-2-yl]-4-methyl-1-piperidyl]-6-methyl-7H-pyrrolo[2,3-d]pyrimidine]: the IC50 in experiment [1] is under 10 µM; against c-kit mutant D816V, 0.0001 to 1 µM.

On to `CCOc1ccc(-c2[nH]c(C3CCN(c4ncnc5[nH]c(-c6ccc(F)cc6)cc45)CC3)nc2C)cc1C` [P-3065, 4-[4-[5-(4-ethoxy-3-methyl-phenyl)-4-methyl-1H-imidazol-2-yl]-1-piperidyl]-6-(4-fluorophenyl)-7H-pyrrolo[2,3-d]pyrimidine], for which the IC50 is under 10 µM in experiment [1] and 0.0001 to 1 µM on c-kit mutant D816V.

For `CCOc1ccc(-c2[nH]c(C3CCN(c4ncnc5[nH]c(-c6ccc(C#N)cc6)cc45)CC3)nc2C)cc1C` [P-3066, 4-[4-[4-[5-(4-ethoxy-3-methyl-phenyl)-4-methyl-1H-imidazol-2-yl]-1-piperidyl]-7H-pyrrolo[2,3-d]pyrimidin-6-yl]benzonitrile], the half-inhibitory concentration (IC50) in experiment [1] was under 10 µM; at c-kit mutant D816V it was 0.0001 to 1 µM.

`CCOc1ccc(-c2[nH]c(C3CCN(c4ncnc5[nH]c(-c6ccnc(OC)c6)cc45)CC3)nc2C)cc1C` [P-3067, 4-[4-[5-(4-ethoxy-3-methyl-phenyl)-4-methyl-1H-imidazol-2-yl]-1-piperidyl]-6-(2-methoxy-4-pyridyl)-7H-pyrrolo[2,3-d]pyrimidine]: the IC50 was under 10 µM in experiment [1] and 0.0001 to 1 µM at c-kit mutant D816V.

`Cc1nc(C2CCN(c3ncnc4[nH]c(-c5ccc(F)cc5)cc34)CC2)[nH]c1-c1ccc2c(c1)OCO2` [P-3068, 4-[4-[5-(1,3-benzodioxol-5-yl)-4-methyl-1H-imidazol-2-yl]-1-piperidyl]-6-(4-fluorophenyl)-7H-pyrrolo[2,3-d]pyrimidine]: the concentration for half-maximal inhibition (IC50) was under 10 µM in experiment [1] and 0.0001 to 1 µM at c-kit mutant D816V.

With `Cc1nc(C2CCN(c3ncnc4[nH]c(-c5ccc(C#N)cc5)cc34)CC2)[nH]c1-c1ccc2c(c1)OCO2` [P-3069, 4-[4-[4-[5-(1,3-benzodioxol-5-yl)-4-methyl-1H-imidazol-2-yl]-1-piperidyl]-7H-pyrrolo[2,3-d]pyrimidin-6-yl]benzonitrile], the figures for the IC50 (in experiment [1]; against c-kit mutant D816V) were under 10 µM and 0.0001 to 1 µM, respectively.

For the compound `COc1cc(-c2cc3c(N4CCC(c5nc(C)c(-c6ccc7c(c6)OCO7)[nH]5)CC4)ncnc3[nH]2)ccn1` [P-3070, 4-[4-[5-(1,3-benzodioxol-5-yl)-4-methyl-1H-imidazol-2-yl]-1-piperidyl]-6-(2-methoxy-4-pyridyl)-7H-pyrrolo[2,3-d]pyrimidine], the half-inhibitory concentration (IC50) was under 10 µM in experiment [1] and 0.0001 to 1 µM against c-kit mutant D816V.

`CC(=O)Nc1cccc(-c2cc3c(N4CCC(c5nc(C)c(-c6ccccc6)[nH]5)CC4)ncnc3[nH]2)c1` [P-3071, N-[3-[4-[4-(4-methyl-5-phenyl-1H-imidazol-2-yl)-1-piperidyl]-7H-pyrrolo[2,3-d]pyrimidin-6-yl]phenyl]acetamide]: the half-maximal inhibitory concentration (IC50) in experiment [1] is under 10 µM; against c-kit mutant D816V, 0.0001 to 1 µM.

As to `COc1ccc(-c2cc3c(N4CCC(c5nc(C)c(-c6ccccc6)[nH]5)CC4)ncnc3[nH]2)cn1` [P-3072, 6-(6-methoxy-3-pyridyl)-4-[4-(4-methyl-5-phenyl-1H-imidazol-2-yl)-1-piperidyl]-7H-pyrrolo[2,3-d]pyrimidine], the IC50 in experiment [1] was under 10 µM; against c-kit mutant D816V, 0.0001 to 1 µM.

Regarding `Cc1nn(C)cc1-c1cc2c(N3CCC(c4nc(C)c(-c5ccccc5)[nH]4)CC3)ncnc2[nH]1` [P-3073, 6-(1,3-dimethylpyrazol-4-yl)-4-[4-(4-methyl-5-phenyl-1H-imidazol-2-yl)-1-piperidyl]-7H-pyrrolo[2,3-d]pyrimidine], the concentration for half-maximal inhibition (IC50) in experiment [1] is under 10 µM; at c-kit mutant D816V it was 0.0001 to 1 µM.

For the compound `Cc1ccc(-c2cc3c(N4CCC(c5nc(C)c(-c6ccccc6)[nH]5)CC4)ncnc3[nH]2)cn1` [P-3074, 4-[4-(4-methyl-5-phenyl-1H-imidazol-2-yl)-1-piperidyl]-6-(6-methyl-3-pyridyl)-7H-pyrrolo[2,3-d]pyrimidine], the IC50 was under 10 µM in experiment [1] and 0.0001 to 1 µM against c-kit mutant D816V.

Consider `CCOc1cc(-c2cc3c(N4CCC(c5nc(C)c(-c6ccccc6)[nH]5)CC4)ncnc3[nH]2)ccn1` [P-3075, 6-(2-ethoxy-4-pyridyl)-4-[4-(4-methyl-5-phenyl-1H-imidazol-2-yl)-1-piperidyl]-7H-pyrrolo[2,3-d]pyrimidine], for which the figures for the half-inhibitory concentration (IC50) (in experiment [1]; against c-kit mutant D816V) were under 10 µM and 0.0001 to 1 µM, respectively.

`Cc1nc(C2CCN(c3ncnc4[nH]c(-c5ccnc(N6CCOCC6)c5)cc34)CC2)[nH]c1-c1ccccc1` [P-3076, 4-[4-[4-[4-(4-methyl-5-phenyl-1H-imidazol-2-yl)-1-piperidyl]-7H-pyrrolo[2,3-d]pyrimidin-6-yl]-2-pyridyl]morpholine]: the half-inhibitory concentration (IC50) in experiment [1] was under 10 µM; at c-kit mutant D816V, 0.0001 to 1 µM.

On to `Cc1nc(C2CCN(c3ncnc4[nH]c(-c5ccnc(N6CCC(C)CC6)c5)cc34)CC2)[nH]c1-c1ccccc1` [P-3077, 4-[4-(4-methyl-5-phenyl-1H-imidazol-2-yl)-1-piperidyl]-6-[2-(4-methyl-1-piperidyl)-4-pyridyl]-7H-pyrrolo[2,3-d]pyrimidine], for which the IC50 in experiment [1] was under 10 µM; on c-kit mutant D816V, 0.0001 to 1 µM.

With `Cc1nc(C2CCN(c3ncnc4[nH]c(-c5ccnc(OC(C)C)c5)cc34)CC2)[nH]c1-c1ccccc1` [P-3078, 6-(2-isopropoxy-4-pyridyl)-4-[4-(4-methyl-5-phenyl-1H-imidazol-2-yl)-1-piperidyl]-7H-pyrrolo[2,3-d]pyrimidine], the IC50 in experiment [1] was under 10 µM; on c-kit mutant D816V it was 0.0001 to 1 µM.

Regarding `Cc1nc(C2CCN(c3ncnc4[nH]c(-c5ccnc(N6CCCC6)c5)cc34)CC2)[nH]c1-c1ccccc1` [P-3079, 4-[4-(4-methyl-5-phenyl-1H-imidazol-2-yl)-1-piperidyl]-6-(2-pyrrolidin-1-yl-4-pyridyl)-7H-pyrrolo[2,3-d]pyrimidine], the 50% inhibitory concentration (IC50) in experiment [1] is under 10 µM; against c-kit mutant D816V, 0.0001 to 1 µM.

`Cc1nc(C2CCN(c3ncnc4[nH]c(-c5cccc(OC(F)(F)F)c5)cc34)CC2)[nH]c1-c1ccccc1` [P-3080, 4-[4-(4-methyl-5-phenyl-1H-imidazol-2-yl)-1-piperidyl]-6-[3-(trifluoromethoxy)phenyl]-7H-pyrrolo[2,3-d]pyrimidine]: the IC50 is under 10 µM in experiment [1] and 0.0001 to 1 µM at c-kit mutant D816V.

As to `Cc1nc(C2CCN(c3ncnc4[nH]c(-c5cccc(F)c5)cc34)CC2)[nH]c1-c1ccccc1` [P-3081, 6-(3-fluorophenyl)-4-[4-(4-methyl-5-phenyl-1H-imidazol-2-yl)-1-piperidyl]-7H-pyrrolo[2,3-d]pyrimidine], the IC50 is under 10 µM in experiment [1] and 0.0001 to 1 µM against c-kit mutant D816V.

With `Cc1nc(C2CCN(c3ncnc4[nH]c(-c5cccc(NS(C)(=O)=O)c5)cc34)CC2)[nH]c1-c1ccccc1` [P-3083, N-[3-[4-[4-(4-methyl-5-phenyl-1H-imidazol-2-yl)-1-piperidyl]-7H-pyrrolo[2,3-d]pyrimidin-6-yl]phenyl]methane sulfonamide], the concentration for half-maximal inhibition (IC50) is under 10 µM in experiment [1] and 0.0001 to 1 µM on c-kit mutant D816V.

As to `Cc1nc(C2CCN(c3ncnc4[nH]c(-c5ccc(F)cc5)cc34)CC2)[nH]c1-c1ccc2c(c1)OCCO2` [P-3084, 4-[4-[5-(2,3-dihydro-1,4-benzodioxin-6-yl)-4-methyl-1H-imidazol-2-yl]-1-piperidyl]-6-(4-fluorophenyl)-7H-pyrrolo[2,3-d]pyrimidine], the IC50 is under 10 µM in experiment [1] and 0.0001 to 1 µM against c-kit mutant D816V.

Consider `Cc1nc(C2CCN(c3ncnc4[nH]c(-c5ccc(F)cc5)cc34)CC2)[nH]c1-c1ccc(OC(F)(F)F)cc1` [P-3085, 6-(4-fluorophenyl)-4-[4-[4-methyl-5-[4-(trifluoromethoxy)phenyl]-1H-imidazol-2-yl]-1-piperidyl]-7H-pyrrolo[2,3-d]pyrimidine], for which the half-inhibitory concentration (IC50) in experiment [1] is under 10 µM; against c-kit mutant D816V, 0.0001 to 1 µM.

For the compound `Cc1nc(C2CCN(c3ncnc4[nH]c(-c5ccc(C#N)cc5)cc34)CC2)[nH]c1-c1ccc(OC(F)(F)F)cc1` [P-3086, 4-[4-[4-[4-methyl-5-[4-(trifluoromethoxy)phenyl]-1H-imidazol-2-yl]-1-piperidyl]-7H-pyrrolo[2,3-d]pyrimidin-6-yl]benzonitrile], the 50% inhibitory concentration (IC50) in experiment [1] was under 10 µM; on c-kit mutant D816V, 0.0001 to 1 µM.
